According to publication PMC11022693, “Targeting C21orf58 is a Novel Treatment Strategy of Hepatocellular Carcinoma by Disrupting the Formation of JAK2/C21orf58/STAT3 Complex” (Advanced Science, 2024):

Molecular target: T1, C21orf58 (Homo sapiens, UniProt P58505)
T1 construct: human C21orf58 in pET-21a, expressed in E. coli Rosetta (DE3), Ni-NTA purified, lyophilized
Assay: 1H NMR of mixed ligand and purified protein
Format: binding
Details: deuterated water; mixed and incubated 30 min at room temperature; 600 MHz

T1 sequence (P58505 whole entry): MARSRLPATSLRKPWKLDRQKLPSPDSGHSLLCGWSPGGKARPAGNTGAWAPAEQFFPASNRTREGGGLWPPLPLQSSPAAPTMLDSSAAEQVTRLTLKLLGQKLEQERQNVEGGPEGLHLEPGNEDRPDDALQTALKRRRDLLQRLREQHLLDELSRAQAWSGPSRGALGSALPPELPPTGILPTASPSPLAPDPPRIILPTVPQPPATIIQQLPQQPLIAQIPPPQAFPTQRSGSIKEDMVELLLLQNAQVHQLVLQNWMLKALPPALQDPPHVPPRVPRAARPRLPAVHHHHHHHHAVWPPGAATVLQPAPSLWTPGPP

SMILES: C=C(C)CNc1ccc(C(C)C(=O)O)cc1 (stereo not shown) [alminoprofen]
- 1H NMR of mixed ligand and purified protein: H Nuclear Magnetic Resonance Spectra suggested that alminoprofen could bind on the C21orf58 protein
